What all share (format): physicochemical
The nature of series [1]: Gelling of water-immiscible cosmetic liquids in 96 well glass micro-titre plate. Also noted: key: gel; g4: gel after overnight (18 hrs) storage at 4° C.; g22: gel after overnight (18 hrs) storage at 22° C.; sg: soft gel; sg22: soft gel after overnight (18 hrs) storage at 22° C.; solution; *: the test at 4° C. was not carried out. The note with it: for gelling of ISA: 150° C. 2.5 hours, cooled to ambient. The method, then:
In this Example, various samples of esterified cellobiose prepared as in Example 1 or 2 above, were used to gel water-immiscible cosmetic liquids, in accordance with the procedure given below, in which a large number of gels can be prepared simultaneously.
The samples were tested in a 96 well (8×12 rows) glass micro-titre plate. […] About 0.01 or 0.02 g of each esterified cellobiose material was placed into 8 consecutive wells in a single row, so that each well contained approximately 5% or 10% of the cellobiose ester. The balance in each well comprised the cosmetic liquid by addition of approximately 0.2 g of the respective liquid to each cell. A glass lid was placed on top of the plate. The plate was carefully placed in a thermostatically controlled fan-assisted oven set at 150° C. for 2.5 hours. The plate was removed from the oven and allowed to cool naturally to ambient laboratory temperature. The contents of the wells were assessed at the end of the cooling period, by visual inspection and by poking the contents of each well with a micro-spatula. The plates were stored at […] for 18 hours and the contents inspected, and further stored for 18 hours at 4° C. and inspected for a third time. The results obtained in the tests are summarised in Table 5 below, in which the legend is as follows: […]

The nature of series [2]: Visual assessment score (clarity of gel in 1 cm cuvette). The note with it: for Clarity Visual (assessment score): scale −12 to 8. From the text: A gel contained within a 1 cm thick cuvette was placed directly on to a sheet of white paper on which 21 sets of figures where printed in black. The size and thickness of the figures varied systematically and were numbered from −12 (the largest, thickest set) through 0 to 8 (the smallest thinnest set) The score given to each gel was the highest numbered set which could be read clearly through the gel, the higher the number, the higher the clarity.

A short description of series [3]: Light transmission at 580 nm (% T). To be noted: 580 nm. The procedure: The translucency of a composition may be measured by placing a sample of standardised thickness in the light path of a spectrophotometer and measuring transmittance, as a percentage of light transmitted in the absence of the gel.
This test was carried out using a dual-beam spectrophotometer. The sample of composition was poured hot into a 4.5 ml cuvette made of poly(methyl-methacrylate) (PMMA) and allowed to cool to an ambient temperature of 20-25° C. Such a cuvette gives a 1 cm thickness of composition. […] A transmittence measured at any temperature in the range from 20-25° C. is usually adequately accurate, but measurement is made at 22° C. if more precision is required.

[4] abbreviates: 5% cellobiose ester in Fluid AP.
The mark [5] stands for this setting: 5% cellobiose ester in Mineral oil.
[6] abbreviates: 5% cellobiose ester in Polydecene.
Setting [7] is: 10% cellobiose ester in Fluid AP.
Setting [8] is: 10% cellobiose ester in Mineral oil.
[9] abbreviates: 10% cellobiose ester in Polydecene.
[10] abbreviates: 9% REF4 plus 1% of the named material in 60:40 hydrogenated polydecene:DC245.
Setting [11] is: 9% REF4 plus 1% of the named material.
[12] abbreviates: 9% REF2 and 1% of the specified ester in 60:40 hydrogenated polydecene:DC245.
[13] abbreviates: 60:40 hydrogenated polydecene:DC245 gelled with 9% REF2 and 1% of the specified cellobiose ester.
Where [14] appears, read: Ex 2.6:REF 4 at stated weight ratio, total 10% in 60:40 w/w Silkflo 364NF:DC245.

Nine compounds from US6974804B2, “Esters” (Unilever Home & Personal Care USA, division of Conopco, Inc., priority 2000, dated 2005) can be followed below.

Molecules are shown by their SMILES.

As to `CCCCCCCCCC(=O)OCC1OC(OC2C(COC(=O)CCCCCCCCC)OC(OC(=O)c3ccc(-c4ccccc4)cc3)C(OC(=O)CCCCCCCCC)C2OC(=O)CCCCCCCCC)C(OC(=O)CCCCCCCCC)C(OC(=O)CCCCCCCCC)C1OC(=O)CCCCCCCCC` (mixture of isomers) [Ex 2.9], the “gelling of DC556” value in series [1] (5% cellobiose ester in DC556) and in series [1] (10% cellobiose ester in DC556) was “gel” each time. For the same compound, the “gelling of Fluid AP” value in series [1] (setting [4]) and in series [1] (setting [7]) was “gel” each time. Besides, the “gelling of ISA” value in series [1] (5% cellobiose ester in ISA) is on record as “g22”; in series [1] (10% cellobiose ester in ISA), “gel”. Besides, the “gelling of Mineral oil” value was “sg” in series [1] (setting [5]) and “gel” in series [1] (setting [8]). For the same compound, the “gelling of Polydecene” value in series [1] (setting [6]) and in series [1] (setting [9]) was “gel” each time. The “Clarity Visual (appearance)” value in series [2] (setting [10]) is recorded as “translucent”. Moreover, the “Clarity Visual (assessment score)” value in series [2] (setting [11]) was −3. In addition, the “Clarity % T” value in series [3] (setting [11]) is given as 7.7%.

For the compound `CCCCCCCCCCCCCCCC(=O)OC1OC(COC(=O)CCCCCCCC)C(OC2OC(COC(=O)CCCCCCCC)C(OC(=O)CCCCCCCC)C(OC(=O)CCCCCCCC)C2OC(=O)CCCCCCCC)C(OC(=O)CCCCCCCC)C1OC(=O)CCCCCCCC` (mixture of isomers) [Ex 1.9], the “gelling of DC556” value in series [1] (5% cellobiose ester in DC556) is reported as “gel”. Also, the “gelling of Fluid AP” value in series [1] (setting [4]) is “gel”. Further, the “gelling of IPM” value in series [1] (5% cellobiose ester in IPM) and in series [1] (10% cellobiose ester in IPM) was “g4” each time. The “gelling of ISA” value in series [1] (5% cellobiose ester in ISA) is “g22”. Further, the “gelling of Mineral oil” value in series [1] (setting [5]) was “g22”. Moreover, the “gelling of Polydecene” value in series [1] (setting [6]) is reported as “gel”. Further, the “Clarity Visual (assessment score)” value in series [2] (setting [12]) is on record as over 8. In addition, in series [2] (setting [13]), the “Clarity Visual (appearance)” value is on record as “transparent”. For the same compound, the “Clarity % T” value in series [3] (setting [12]) came out at 45%.

As to `CCCCCCCCCC(=O)OCC1OC(OC2C(COC(=O)CCCCCCCCC)OC(OC(=O)CCCCCCCCC)C(OC(=O)CCCCCCCCC)C2OC(=O)CCCCCCCCC)C(OC(=O)CCCCCCCCC)C(OC(=O)CCCCCCCCC)C1OC(=O)CCCCCCCCC` (mixture of isomers) [REF 4, reference compound], the “Clarity Visual (appearance)” value in series [2] (setting [10]) is listed as “opaque”. In series [2] (setting [11]), the “Clarity Visual (assessment score)” value is recorded as under −12. Moreover, the “Clarity Visual Score” value in series [2] (setting [14]) is recorded as under −12. Moreover, the “Clarity % T” value in series [3] (setting [11]) and in series [3] (setting [14]) was 0.36% in each case.

In series [2] (gel in 60:40 w/w Silkflo 364:DC245, score scale −12 to 8), `CCCCCCCCC(=O)OCC1OC(OC2C(COC(=O)CCCCCCCC)OC(OC(=O)C3CCCCC3)C(OC(=O)CCCCCCCC)C2OC(=O)CCCCCCCC)C(OC(=O)CCCCCCCC)C(OC(=O)CCCCCCCC)C1OC(=O)CCCCCCCC` (mixture of isomers) [Ex 3.3, cellobiose heptanonanoate monocyclohexanoate] had a Visual of over 8. Besides, in series [3] (gel in 60:40 w/w Silkflo 364:DC245), the “% T” value is 53%.

In the case of `CCCCCCCCCC(=O)OCC1OC(OC2C(COC(=O)CCCCCCCCC)OC(OC(=O)c3ccccc3)C(OC(=O)CCCCCCCCC)C2OC(=O)CCCCCCCCC)C(OC(=O)CCCCCCCCC)C(OC(=O)CCCCCCCCC)C1OC(=O)CCCCCCCCC` (mixture of isomers) [Ex 2.1], the “gelling of DC556” value in series [1] (5% cellobiose ester in DC556) and in series [1] (10% cellobiose ester in DC556) was “gel” each time. Further, the “gelling of Fluid AP” value in series [1] (setting [4]) and in series [1] (setting [7]) was “gel” each time. For the same compound, the “gelling of ISA” value in series [1] (5% cellobiose ester in ISA) and in series [1] (10% cellobiose ester in ISA) was “gel” in each case. Further, the “gelling of Mineral oil” value in series [1] (setting [5]) and in series [1] (setting [8]) was “gel” throughout. The “gelling of Polydecene” value in series [1] (setting [6]) and in series [1] (setting [9]) was “gel” in each case. In addition, the “Clarity Visual (appearance)” value in series [2] (setting [10]) is on record as “translucent”. Also, the “Clarity Visual (assessment score)” value in series [2] (setting [11]) is reported as −1. Moreover, the “Clarity % T” value in series [3] (setting [11]) was determined as 9.53%.

For the compound `CCCCCCCCC(=O)OCC1OC(OC2C(COC(=O)CCCCCCCC)OC(OC(=O)c3ccc4ccccc4c3)C(OC(=O)CCCCCCCC)C2OC(=O)CCCCCCCC)C(OC(=O)CCCCCCCC)C(OC(=O)CCCCCCCC)C1OC(=O)CCCCCCCC` (mixture of isomers) [Ex 1.4], the “gelling of DC556” value in series [1] (5% cellobiose ester in DC556) and in series [1] (10% cellobiose ester in DC556) was “gel” throughout. In addition, the “gelling of Finsolv TN” value in series [1] (5% cellobiose ester in Finsolv TN) and in series [1] (10% cellobiose ester in Finsolv TN) was “sol” each time. The “gelling of Fluid AP” value in series [1] (setting [4]) and in series [1] (setting [7]) was “gel” in each case. Besides, the “gelling of IPM” value in series [1] (5% cellobiose ester in IPM) and in series [1] (10% cellobiose ester in IPM) was “sol” throughout. Also, the “gelling of ISA” value in series [1] (5% cellobiose ester in ISA) and in series [1] (10% cellobiose ester in ISA) was “g22” each time. Also, the “gelling of Mineral oil” value in series [1] (setting [5]) and in series [1] (setting [8]) was “g22” in each case. For the same compound, the figures for the “gelling of Polydecene” value in series [1] (setting [6]) and in series [1] (setting [9]) were “g22” and “gel”, respectively. In addition, the “Clarity Visual (assessment score)” value in series [2] (setting [12]) is reported as “slight haze >8”. In series [2] (setting [13]), the “Clarity Visual (appearance)” value is “transparent/”. Moreover, in series [3] (setting [12]), the “Clarity % T” value was found to be 38%.

Regarding `CCCCCCCCC(=O)OCC1OC(O)C(OC(=O)CCCCCCCC)C(OC(=O)CCCCCCCC)C1OC1OC(COC(=O)CCCCCCCC)C(OC(=O)CCCCCCCC)C(OC(=O)CCCCCCCC)C1OC(=O)CCCCCCCC` (mixture of isomers) [REF 5, reference compound], the “Clarity Visual (assessment score)” value in series [2] (setting [12]) is listed as “translucent 4”. In addition, the “Clarity Visual (appearance)” value in series [2] (setting [13]) is recorded as “transparent/”. The “Clarity % T” value in series [3] (setting [12]) stood at 31%.

As for `CCCCCCCCCC(=O)OCC1OC(OC2C(COC(=O)CCCCCCCCC)OC(OC(=O)C3CCCCC3)C(OC(=O)CCCCCCCCC)C2OC(=O)CCCCCCCCC)C(OC(=O)CCCCCCCCC)C(OC(=O)CCCCCCCCC)C1OC(=O)CCCCCCCCC` (mixture of isomers) [Ex 2.10], the “gelling of DC556” value in series [1] (5% cellobiose ester in DC556) and in series [1] (10% cellobiose ester in DC556) was “gel” each time. The “gelling of Fluid AP” value in series [1] (setting [4]) and in series [1] (setting [7]) was “gel” in each case. Further, the results for the “gelling of ISA” value in series [1] (5% cellobiose ester in ISA) and in series [1] (10% cellobiose ester in ISA) were “g22” and “gel”, respectively. Further, the “gelling of Mineral oil” value in series [1] (setting [5]) and in series [1] (setting [8]) was “gel” each time. The “gelling of Polydecene” value in series [1] (setting [6]) and in series [1] (setting [9]) was “gel” throughout. In series [2] (setting [10]), the “Clarity Visual (appearance)” value is “translucent”. In series [2] (setting [11]), the “Clarity Visual (assessment score)” value is reported as −5. For the same compound, the “Clarity % T” value in series [3] (setting [11]) was 5.9%.

For the compound `CCCCCCCCCC(=O)OCC1OC(OC2C(COC(=O)CCCCCCCCC)OC(OC(=O)c3ccc4ccccc4c3)C(OC(=O)CCCCCCCCC)C2OC(=O)CCCCCCCCC)C(OC(=O)CCCCCCCCC)C(OC(=O)CCCCCCCCC)C1OC(=O)CCCCCCCCC` (mixture of isomers) [Ex 2.7], the “gelling of DC556” value in series [1] (5% cellobiose ester in DC556) and in series [1] (10% cellobiose ester in DC556) was “gel” in each case. The “gelling of Fluid AP” value in series [1] (setting [4]) and in series [1] (setting [7]) was “gel” throughout. In addition, the “gelling of ISA” value in series [1] (5% cellobiose ester in ISA) and in series [1] (10% cellobiose ester in ISA) was “gel” in each case. In addition, the “gelling of Mineral oil” value in series [1] (setting [5]) and in series [1] (setting [8]) was “gel” in each case. The “gelling of Polydecene” value in series [1] (setting [6]) and in series [1] (setting [9]) was “gel” each time. In series [2] (setting [10]), the “Clarity Visual (appearance)” value is “translucent”. Also, the “Clarity Visual (assessment score)” value in series [2] (setting [11]) turned out to be 0. Also, in series [3] (setting [11]), the “Clarity % T” value turned out to be 8.7%.
